Results from the supplement of paper PMC10949913.

Tests used:
Conditions in all cases: 48 h
CU-ACC1 [1] = assay: AC50 viability; higher = less potent
Summary of the method: (§1)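 Three adrenocortical carcinoma cell lines were plated in 1,536-well plates at 500–1,000 cells/well in 5 µL medium, and 23 nL of each library compound was added at 11 concentrations. After 48 h, CellTiter-Glo was applied for 15 minutes at room temperature before luminescence was read. Each plate's signals were normalised to vehicle and empty-well controls. AC50 and area under the curve were taken from fitted concentration-response curves, with only inhibitory or non-responding curve classes retained.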

CU-ACC2 [2] = assay: AC50 viability; higher = less potent
Summary of the method: as §1

NCI-H295R [3] = assay: AC50 viability; higher = less potent
Summary of the method: as §1

CU-ACC1 [4] = assay: area under concentration-response curve (viability) (AUC (a.u.)); higher = less active
Summary of the method: as §1

CU-ACC2 [5] = assay: as above
Summary of the method: as §1

NCI-H295R [6] = assay: as above
Summary of the method: as §1

SMILES | AC50 viability (CU-ACC1 [1]) | AC50 viability (CU-ACC2 [2]) | AC50 viability (NCI-H295R [3]) | area under concentration-response curve (CU-ACC1 [4]) | area under concentration-response curve (CU-ACC2 [5]) | area under concentration-response curve (NCI-H295R [6])
N#Cc1c(C2CCNCC2)cc(-c2c(O)cccc2OCC2CC2)nc1N | 10.5 µM | 0.934 µM | 1.05 µM | 291 | 269 | 275
CN(C)C[C@@H]1CC[N]2C=C(C3=C2C=CC=C3)C/4=C(/C(=O)NC4=O)C5=C[N](CCO1)C6=C5C=CC=C6 | 14.8 µM | 8.33 µM | 7.42 µM | 292 | 389 | 368
CN1CC[C@H]([C@@H](O)C1)C2=C(O)C=C(O)C3=C2O\C(=C/C3=O)C4=CC=CC=C4Cl | 0.833 µM | 0.417 µM | 1.32 µM | 346 | 392 | 352
CCc1cc(C(N)=O)ccc1-n1nc(C(C)C)c2c(-n3cnc(-c4cnn(C)c4)c3)ccnc21 | 13.2 µM | 6.61 µM | 9.34 µM | 350 | 543 | 528
O=C(Nc1c[nH]nc1-c1nc2cc(CN3CCOCC3)ccc2[nH]1)NC1CC1 | 8.33 µM | 2.63 µM | 16.6 µM | 423 | 386 | 350
CCc1cnn2c(NCc3ccc[n+]([O-])c3)cc(N3CCCC[C@H]3CCO)nc12 | 0.00263 µM | 0.0059 µM | 0.00417 µM | 177 | 167 | 158
COc1ccc([S+](=O)([O-])N(CCO)c2ccccc2CN(C)C/C=C/c2ccc(Cl)cc2)cc1 | 14.8 µM | 23.5 µM | 20.9 µM | 436 | 539 | 425
Cc1cc2cc(Oc3ccnc(Nc4cccc(C[S+](=O)([O-])NCCN(C)C)c4)n3)ccc2[nH]1 | 20.9 µM | 23.5 µM | 23.5 µM | 493 | 480 | 468
COc1cc2c(Oc3ccc4[nH]c(C)cc4c3F)ncnc2cc1OCCCN1CCCC1 | 20.9 µM | 20.9 µM | 20.9 µM | 491 | 566 | 461
COC1=CC2=NC=CC(=C2C=C1)OC3=CN=C(NC(=O)C/4=C(C)/N(CC(C)(C)O)N(C4=O)C5=CC=CC=C5)C=C3 | 23.5 µM | 18.6 µM | 14.8 µM | 354 | 350 | 369
O=C(NC1CCNCC1)c1n[nH]cc1NC(=O)c1c(Cl)cccc1Cl | 9.34 µM | 3.32 µM | 16.6 µM | 464 | 512 | 542
Clc1ccc(C2(c3ccc(-c4cn[nH]c4)cc3)CCNCC2)cc1 | 18.6 µM | 23.5 µM | 18.6 µM | 419 | 423 | 399
COc1cc(C)c(Sc2cnc(NC(=O)c3ccc(CNC(C)C(C)C)cc3)s2)cc1C(=O)N1CCN(C(C)=O)CC1 (stereo not drawn) | 37.2 µM | 16.6 µM | 14.8 µM | 466 | 527 | 478
